Source: patent US20220380375A1, “SUBSTITUTED AROMATIC FUSED RING DERIVATIVE AND COMPOSITION COMPRISING SAME, AND USE THEREOF” (Shenzhen TargetRx, Inc., priority 2019, published 2022)

Legend:
Type in all cases: cell-based
[1] = tested on: Ba/F3 KIF5B-RET^V804M cells; assay: Cytotoxicity assay (CellTiter-Glo), Ba/F3 KIF5B-RET V804M; conditions: ratio of Ba/F3 parental IC50 to Ba/F3 KIF5B-RET^V804M IC50
Description: (§1) Inhibitory effects of example compounds on the activity of Ba/F3 parental generation, Ba/F3 KIF5B-RET, Ba/F3 KIF5B-RET^V804M, Ba/F3 KIF5B-RET^V804L, Ba/F3 KIF5B-RET^G810R, Ba/F3 FLT3-ITD, Ba/F3 FLT3-ITD^D835Y, Ba/F3 FLT3-ITD^F691L cells were determined.
(§2) Materials and reagents: fetal bovine serum FBS (GIBCO, Cat #10099141), CellTiter-Glo® Luminescent Cell Viability Assay kit (Promega, Cat #G7572), 96-well black-wall clear flat-bottom plate (Corning®, Cat #3603).
(§3) 1. Cells in the logarithmic growth phase were harvested and counted with a […]. Cell viability was detected by a trypan blue exclusion method, ensuring that cell viability was 90% or more; 2. Cell concentration was adjusted to about 3000 cells/well; 90 μl of cell suspension was added to each well of the 96-well plate; 3. The cells in the 96-well plate were incubated overnight under the condition of 37° C., 5% CO2, and 95% humidity.
(§4) 1. A series of compound solutions were formulated by 3.16-fold serial dilution starting from a concentration of 10 μM, resulting in 9 concentrations. 10 μL of the compound solutions were added in each well of the 96-well plate seeded with cells in triplicate for each compound concentration; 2. The cells in the 96-well plate added with compounds were further incubated under the condition of 37° C., 5% CO2, and 95% humidity for 72 hrs, and then CTG analysis was carried out.
(§5) 1. CTG reagent was thawed, and the cell plate was equilibrated at room temperature for 30 minutes; 2. An equal volume […] of CTG solution was added to each well; 3. The cell plate was shaken on an orbital shaker for 5 minutes to lyse the cells; 4. The cell plate was placed at RT for 20 minutes to stabilize the luminescence signal; 5. Luminescence value was read.
(§6) Data were Analyzed by GraphPad Prism 5.0 Software, and Fitted by Nonlinear S-Curve Regression to obtain a dose-response curve, from which IC50 values were calculated.
(§7) Cell survival rate (%)=(luminescence value of drug to be tested−luminescence value of culture medium control)/(luminescence value of cell control−luminescence value of culture medium control)×100%.

[2] = molecular target: T1, Ba/F3 KIF5B-RET^V804M cells (Homo sapiens, UniProt P07949, V804M, cells depend on it); assay: as above; conditions: CellTiter-Glo, 72 hrs; read-out: Ba/F3 KIF5B-RET^V804M IC50
T1 construct: Ba/F3 KIF5B-RET^V804M IC50 (nM); other: CellTiter-Glo, 72 hrs; fused on or other part: P33176 (Kinesin-1 heavy chain)
Description: as §1, §2, §3, §4, §5, §6, §7

[3] = tested on: Ba/F3 KIF5B-RET^G810R cells; assay: Cytotoxicity assay (CellTiter-Glo), Ba/F3 KIF5B-RET G810R; conditions: ratio of Ba/F3 parental IC50 to Ba/F3 KIF5B-RET^G810R IC50
Description: as §1, §2, §3, §4, §5, §6, §7

[4] = molecular target: T2, Ba/F3 KIF5B-RET^G810R cells (Homo sapiens, UniProt P07949, G810R, cells depend on it); assay: as above; conditions: CellTiter-Glo, 72 hrs; read-out: Ba/F3 KIF5B-RET^G810R IC50
T2 construct: Ba/F3 KIF5B-RET^G810R IC50 (nM); other: CellTiter-Glo, 72 hrs; fused on or other part: P33176 (Kinesin-1 heavy chain)
Description: as §1, §2, §3, §4, §5, §6, §7

[5] = molecular target: T3, Ba/F3 KIF5B-RET^V804L cells (Homo sapiens, UniProt P07949, V804L, cells depend on it); assay: Cytotoxicity assay (CellTiter-Glo), Ba/F3 KIF5B-RET V804L; conditions: CellTiter-Glo, 72 hrs; read-out: Ba/F3 KIF5B-RET^V804L IC50
T3 construct: Ba/F3 KIF5B-RET^V804L IC50 (nM); other: CellTiter-Glo, 72 hrs; fused on or other part: P33176 (Kinesin-1 heavy chain)
Description: as §1, §2, §3, §4, §5, §6, §7

[6] = molecular target: T4, Ba/F3 FLT3-ITD^D835Y cells (Homo sapiens, UniProt P36888, D835Y, cells depend on it, form not given); assay: Cytotoxicity assay (CellTiter-Glo), Ba/F3 FLT3-ITD D835Y; conditions: CellTiter-Glo, 72 hrs; read-out: Ba/F3 FLT3-ITD^D835Y IC50
T4 construct: Ba/F3 FLT3-ITD^D835Y IC50 (nM); other: CellTiter-Glo, 72 hrs
T4 sequence (P36888 1-993 D835Y): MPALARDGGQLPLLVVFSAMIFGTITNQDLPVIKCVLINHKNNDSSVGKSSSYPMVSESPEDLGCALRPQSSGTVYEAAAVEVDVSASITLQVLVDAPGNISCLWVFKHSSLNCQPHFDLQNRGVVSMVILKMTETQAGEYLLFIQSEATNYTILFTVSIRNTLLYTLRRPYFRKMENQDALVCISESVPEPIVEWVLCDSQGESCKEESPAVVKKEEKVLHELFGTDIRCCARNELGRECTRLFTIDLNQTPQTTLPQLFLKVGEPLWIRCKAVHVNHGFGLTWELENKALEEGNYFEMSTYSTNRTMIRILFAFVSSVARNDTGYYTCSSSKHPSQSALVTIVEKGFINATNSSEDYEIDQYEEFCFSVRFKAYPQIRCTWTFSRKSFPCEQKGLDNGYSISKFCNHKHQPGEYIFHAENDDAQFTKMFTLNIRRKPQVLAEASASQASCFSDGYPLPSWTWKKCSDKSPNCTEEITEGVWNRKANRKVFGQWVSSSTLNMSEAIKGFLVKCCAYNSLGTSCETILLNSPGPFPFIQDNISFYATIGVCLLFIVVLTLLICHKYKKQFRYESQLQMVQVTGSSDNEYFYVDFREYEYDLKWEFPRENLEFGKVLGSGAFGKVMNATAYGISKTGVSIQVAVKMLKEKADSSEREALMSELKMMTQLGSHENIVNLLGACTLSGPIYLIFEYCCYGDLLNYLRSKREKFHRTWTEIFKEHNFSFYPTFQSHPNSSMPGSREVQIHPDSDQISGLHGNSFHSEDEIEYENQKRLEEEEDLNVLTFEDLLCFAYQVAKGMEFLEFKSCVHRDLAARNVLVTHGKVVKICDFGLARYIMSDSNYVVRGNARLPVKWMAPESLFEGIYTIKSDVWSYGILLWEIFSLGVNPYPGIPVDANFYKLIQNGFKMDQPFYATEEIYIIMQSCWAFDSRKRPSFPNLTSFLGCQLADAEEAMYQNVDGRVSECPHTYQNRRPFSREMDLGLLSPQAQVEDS
Description: as §1, §2, §3, §4, §5, §6, §7

[7] = tested on: Ba/F3 FLT3-ITD^D835Y cells; assay: as above; conditions: ratio of Ba/F3 parental IC50 to Ba/F3 FLT3-ITD^D835Y IC50
Description: as §1, §2, §3, §4, §5, §6, §7

T3 sequence (P07949 whole entry V804L, the tested form may be a part): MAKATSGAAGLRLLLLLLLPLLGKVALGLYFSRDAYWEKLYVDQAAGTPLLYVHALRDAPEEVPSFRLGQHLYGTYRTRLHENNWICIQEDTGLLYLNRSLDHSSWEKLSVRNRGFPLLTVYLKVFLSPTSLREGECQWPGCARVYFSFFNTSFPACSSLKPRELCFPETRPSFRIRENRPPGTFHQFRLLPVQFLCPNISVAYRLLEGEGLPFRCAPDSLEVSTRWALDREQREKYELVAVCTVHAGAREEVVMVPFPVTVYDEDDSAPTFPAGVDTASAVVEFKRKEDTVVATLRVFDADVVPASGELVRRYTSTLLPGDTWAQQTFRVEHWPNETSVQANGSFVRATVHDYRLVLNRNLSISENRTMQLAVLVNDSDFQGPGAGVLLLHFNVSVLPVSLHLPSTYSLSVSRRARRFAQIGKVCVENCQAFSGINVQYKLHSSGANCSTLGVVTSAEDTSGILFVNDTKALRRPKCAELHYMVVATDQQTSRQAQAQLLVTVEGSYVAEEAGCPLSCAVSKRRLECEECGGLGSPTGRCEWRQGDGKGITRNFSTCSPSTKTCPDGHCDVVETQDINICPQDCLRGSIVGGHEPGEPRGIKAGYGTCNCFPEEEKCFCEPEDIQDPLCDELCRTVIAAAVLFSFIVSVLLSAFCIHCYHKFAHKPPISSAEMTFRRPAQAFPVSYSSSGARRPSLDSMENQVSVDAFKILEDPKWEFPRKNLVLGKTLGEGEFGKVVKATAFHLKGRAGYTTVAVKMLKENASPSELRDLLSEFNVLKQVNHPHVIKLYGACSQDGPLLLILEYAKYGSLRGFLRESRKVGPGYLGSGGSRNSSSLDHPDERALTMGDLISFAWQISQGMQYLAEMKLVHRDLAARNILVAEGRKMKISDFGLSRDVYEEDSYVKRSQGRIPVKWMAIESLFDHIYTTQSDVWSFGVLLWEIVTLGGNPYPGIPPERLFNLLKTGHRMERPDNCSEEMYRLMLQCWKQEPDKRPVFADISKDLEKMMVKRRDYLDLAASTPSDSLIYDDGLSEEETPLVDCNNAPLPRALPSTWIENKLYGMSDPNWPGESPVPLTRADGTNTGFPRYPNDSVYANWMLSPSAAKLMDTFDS
T1 sequence (P07949 whole entry V804M, the tested form may be a part): as the sequence (P07949 whole entry V804L, the tested form may be a part) above, with L804M counted along it
T2 sequence (P07949 whole entry G810R, the tested form may be a part): as the sequence (P07949 whole entry V804L, the tested form may be a part) above, with L804V, G810R counted along it

Compound	Ba/F3 KIF5B-RET^V804M Selectivity on parental generation [1]	GI50 [2] [nM]	Ba/F3 KIF5B-RET^G810R Selectivity on parental generation [3]	GI50 [4] [nM]	GI50 [5] [nM]	GI50 [6] [nM]	Ba/F3 FLT3-ITD^D835Y Selectivity on parental generation [7]
CC(C)c1nc(-c2ccc(CC(=O)Nc3cc(C(C)(C)C(F)(F)F)on3)cc2)c2c(N)ncnn12 [Compound T-10, 2-(4-(4-amino-7-isopropylimidazo[5,1-f][1,2,4]triazin-5-yl)phenyl)-N-(5-(1,1,1-trifluoro-2-methylprop-2-yl)isoxazol-3-yl)acetamide]	191.6	11.7	806.5	2.78	18.4	46.4	48.3
[2H]C([2H])([2H])C(n1nc(-c2ccc(CC(=O)Nc3cc(C(C)(C)C(F)(F)F)no3)cc2)c2c(N)ncnc21)C([2H])([2H])[2H] [Compound T-11, 2-(4-(4-amino-1-(propan-2-yl-1,1,1,3,3,3-d6)-1H-pyrazolo[3,4-d]pyrimidin-3-yl)phenyl)-N-(3-(1,1,1-trifluoro-2-methylpropan-2-yl)isoxazol-5-yl)acetamide]	1517.1	3.63	939.8	5.86	6.1	17.9	307.7
[2H]C([2H])([2H])C(n1cc(-c2ccc(CC(=O)Nc3cc(C(C)(C)C(F)(F)F)on3)cc2)c2c(N)ncnc21)C([2H])([2H])[2H] [Compound T-12, 2-(4-(4-amino-7-(propen-2-yl-1,1,1,3,3,d6)-7H-pyrrolo[2,3-d]pyrimidin-5-yl)phenyl)-N-(5-(1,1,1-trifluo-2-methylpropan-2-yl)isoxazol-3-yl)acetamide]	235.6	4.55	167.5	6.4	8.11	12.3	87.2
